Measurements taken from patent US20220411759A1, “ENDOCRINE DIFFERENTIATION-INDUCING MOLECULE” (President and Fellows of Harvard College, priority 2019, published 2022).

Experiments:
[1] = test system: HUES8 human embryonic stem cells; assay: Flow cytometry of cell proportions during directed differentiation of hESCs into β cells; format: cell-based
Description: (§1) HUES8 ([…]) human embryonic stem cells and human induced pluripotent stem cells (hiPSCs) from line 1016 (person) were obtained from the Human Embryonic Stem Cell Facility and iPS Core Facility of the Harvard Stem Cell Institute. Cells were differentiated into beta like cells in suspension as described previously^37. Briefly, 150Xe^6 cells were suspended in 300 ml of supplemented mTeSR1 and grown in spinning flasks (70 rpm, 37° C., 5% CO2) for 48 hours prior to the beginning of a stepwise differentiation protocol:
Stage 4—5 days in S3 medium supplemented with KGF (50 ng/ml), Sant1 (0.25 μM) and retinoic acid (0.1 μM).
Stage 5—7 days in BE5 medium supplemented with Beta Cellulin (20 ng/ml). XXI (1 μM), Alk5ill(10 μM) and T3 (1 μM). Sant1 (0.25 μM) was added in the first three days, and retinoic acid was added at 0.1 μM in the first three days, then at 0.025 μM.
Stage 6—CMRLS medium supplemented with Alk5iII (10 μM) and T3 (1 μM).
In many of the experiments following cell collection for sc-RNAseq, the protocol was slightly modified to add Y-27632 (10 μM) at stage 3-5, and ActivinA (5 ng/ml) in stage 4. In some cases, an extra day at stage 4 was also added. For the presented functional and flow cytometry analysis in stage 6, CMRLS based media was replaced with S3 medium, without supplements.
(§2) Factors were tested in either 6-well plates placed on a rocker, or in Biott ABLE Bioreactors (Stemgent). IWR1-endo (Sigma-Aldrich) was used at 5 μM. XAV939 (Santa Cruz, SC-296704A) was used at 5 μM. Recombinant human BMP2/BMP7 (Thermo-Fisher) was used at […]. when added during stage 4, CHIR99021 was used at a concentration of […].
Differentiated cell clusters were dispersed into single-cell suspension by incubation in TrypLE Express at 37° C., quenched with PBS+2% FBS, fixed with 4% PFA for 30 min at 4° C., washed once in PBS, and resuspended in PBS+2% FBS. Staining was done in 96-well plates. Cells were incubated in blocking buffer (PBS+0.1% Triton X-100+5% donkey serum) at 4° C. for 30-60 min. Cells were then re-suspended in blocking buffer with primary antibodies and incubated at room temperature for 1 hour or at 4° C. overnight. Cells were washed twice in blocking buffer and incubated in blocking buffer with secondary antibodies at 4° C. for 1 hour. Cells were then washed three times in PBS+5% Donkey serum and analyzed using either the BD Accuri c6 flow cytometer or the LSR-II flow cytometer (BD Biosciences). Analysis of the results was performed using FlowJo software.

[2] = test system: human induced pluripotent stem cells (hiPSCs) from line 1016; assay: Flow cytometry of cell proportions during directed differentiation of hiPSC-1016; format: cell-based; conditions: stage 5
Description: as §1, §2
Differentiated cell clusters were dispersed into single-cell suspension by incubation in TrypLE Express at 37° C., quenched with PBS+2% FBS, fixed with 4% PFA for 30 min at 4° C., washed once in PBS, and resuspended in PBS+2% FBS. Staining was done in 96-well plates. Cells were incubated in blocking buffer (PBS+0.1% Triton X-100+5% donkey serum) at 4° C. for 30-60 min. […] Cells were then washed three times in PBS+5% Donkey serum and analyzed using either the BD Accuri c6 flow cytometer or the LSR-II flow cytometer (BD Biosciences). […]

[3] = test system: differentiating hESC clusters; assay: Nanostring mRNA expression of endocrine, hormone and progenitor markers in differentiating clusters; format: cell-based, human; conditions: treatment during both stages 4 and 5; relative to control
Description: as §2
Cells were collected for RNA extraction in RLT Lysis Buffer (Qiagen) and frozen at −80° C. RNA was extracted using the RNeasy Mini Kit (Qiagen), according the manufacturer's instructions—including DNA digestion, and 100 ng of RNA was used for each reaction. Nanostring set up was performed according to the protocol for the nCounter XT Gene Expression Assay. Data was analyzed in the nSolver 2.5 Software. All genes were normalized to housekeeping genes (ITCH, RPL15, RPL19, TCEB1, UBE2D3). Analysis of changes in gene expression of markers for endocrine and progenitor cells was done using R.

[4] = test system: in vitro generated β cells; assay: Glucose stimulated insulin secretion (GSIS) of stage 6 cells; format: cell-based, human
Description: Differentiated cells were washed twice in Krebs buffer (Krb) containing 2.8mM glucose, and then distributed into 24-well plates containing Millicell Cell culture inserts for easy transfer between conditions. Each well received 0.5 ml buffer with approximately 10^6 cells. After fasting in 2.8 mM glucose for 1 hour in 37° C., the analysis of the cells' response to changing glucose levels was performed by a series of 1 hour incubations in 37° C., in the following order: 1) 2.8 mM (low) glucose. 2) 20 mM (high) glucose. 3) brief wash in 2.8 mM glucose. 4) 1 hour incubation in 2.8 mM glucose. 5) 20 mM glucose. 6) 2.8 mM glucose with 30 mM KCL. At the end of each step (excluding the wash), the incubation buffer was collected and the amount of insulin secreted during the hour's incubation was determined using human insulin ELISA kit (ALPCO diagnostics; 80-INSHUU-E01.1). Clusters were then dispersed into single cells using TrypLE Express (Life Technologies), and cell number was counted automatically by a Vi-Cell (Beckman Coulter).

[5] = test system: differentiating hESC clusters; assay: Cell concentration in differentiation batches during stage 6; format: cell-based, human; conditions: treatment during stage 5, vs control
Description: The relative changes in gene expression relative to control conditions are presented in log values, for two independent experiments. FIG. 9E provides cell concentration in the differentiation batches analyzed in FIG. 4H. […] Bars show the average±S.E. n, from left to right: 8 (7 for IWR), 6, 8, 7, 6. […] The bars show geometric mean±S.E. of the fold change in insulin secretion following the transition from low (2.8 mM) to high (20 mM) glucose levels. FIG. 9F provides fold change in insulin secretion after one stimulation with high glucose. From left to right: n=5,6,6,3; 2-way ANOVA on log(Fold insulin secretion): p-value=0.83 and 0.16 for differences caused by the treatment or the day of analysis, respectively. […]
Differentiated cells were washed twice in Krebs buffer (Krb) containing 2.8mM glucose, and then distributed into 24-well plates containing Millicell Cell culture inserts for easy transfer between conditions. […] At the end of each step (excluding the wash), the incubation buffer was collected and the amount of insulin secreted during the hour's incubation was determined using human insulin ELISA kit (ALPCO diagnostics; 80-INSHUU-E01.1). Clusters were then dispersed into single cells using TrypLE Express (Life Technologies), and cell number was counted automatically by a Vi-Cell (Beckman Coulter).

[6] = test system: differentiating hESC clusters; conditions: Activin A and Y-27632 given together during stage 4; cited from earlier work
[7] = factor added during stage 4, flow cytometry at end of stage 4, vs control
[8] = XXI removed from the media during stage 5, flow cytometry at end of stage 5, vs control with XXI

Question: What does the source list for `O=C(Nc1cccc2cccnc12)c1ccc(N2C(=O)[C@@H]3[C@H](C2=O)[C@@H]2C=C[C@H]3C2)cc1` [IWR1-endo]?
Answer: number / proportion of CHGA+ endocrine cells [1, 7]: significantly raised; number / proportion of PDX1+/NKX6.1+ progenitors [1, 7]: reduced; overall yield of in vitro generated β cells ([1]; treatment during stage 5, concluded from β cell proportion and cell numbers): increases; increase in proportion of C-PEP+/NKX6.1+ β cells, on average, relative to controls ([1]; treatment during stage 5, flow cytometry at end of stage 5): more than 50%; proportion of CHGA+ endocrine cells ([1]; treatment during stage 5, flow cytometry at end of stage 5, compared with the stage 4 effect): even higher relative increase; proportion of hiPSC-1016 derived CHGA+ cells [2]: increases; expression of endocrine markers [3]: increased expression; expression of progenitor markers [3]: downregulated; insulin secretion in response to high glucose levels (first stimulation) ([4]; treatment during stage 5, 2.8 mM to 20 mM glucose): maintain their ability to secrete insulin; insulin release on second stimulation with high glucose, compared to controls ([4]; treatment during stage 5, consecutive stimulations, 20 mM glucose): release less insulin in the second challenge; overall cell numbers / cell concentration during stage 6 [5]: slightly increased; overall cell numbers / cell concentration during stage 6 ([5]; listed as IWR): slightly higher

Question: Which results are given for `C[C@H](NC(=O)Cc1cc(F)cc(F)c1)C(=O)N[C@H]1N=C(c2ccccc2)c2ccccc2N(C)C1=O` [XXI]?
Answer: number of CPEP+NKX6.1+ β cells [1, 8]: dramatically reduced; number of GLP2+ α cells [1, 8]: did not significantly affect

Question: Which “appearance of buds on the clusters' surface” value [6] does the source give for `C[C@@H](N)[C@H]1CC[C@H](C(=O)Nc2ccncc2)CC1` [Y-27632] here?
Answer: induces

Question: For `Cc1c[nH]c(-c2cnc(NCCNc3ccc(C#N)cn3)nc2-c2ccc(Cl)cc2Cl)n1` [CHIR99021], which “number / proportion of CHGA+ endocrine cells” value [1, 7] is on record?
Answer: decreased

B1: Activin A: protein factor (R&D Systems) added to differentiation media (protein, UniProt P08476 311-426, looked up)
Inhibin beta A chain: GLECDGKVNICCKKQFFVSFKDIGWNDWIIAPSGYHANYCEGECPSHIAGTSGSSLSFHSTVINHYRMRGHSPFANLKSCCVPTKLRPMSMLYYDDGQNIIKKDIQNMIVEECGCS
modifications: Inhibin beta A chain
notes: protein factor (R&D Systems) added to differentiation media
Question: Which “appearance of buds on the clusters' surface” value [6] does the source give for B1 here?
Answer: induces
